Source: patent publication US12691107B2, “Methods for the treatment and prevention of lung infections caused by gram-positive bacteria, fungus, or virus by administration of tafenoquine” (priority 2020, dated 2026)

Legend:
SARS-CoV-2 [1] = details: cited from earlier work
SARS-CoV-2 [2] = experiment: microbe, parasite or virus in culture; assay type: cell-based; details: Severe acute respiratory syndrome coronavirus 2, Vero C1008, 96 h
SARS-CoV-2 [3] = experiment: microbe, parasite or virus in culture; assay type: cell-based
Babesia = details: mice; cited from earlier work
[4] = tested on: Para-Influenza-3 virus, Reovirus, Sindbis virus, Cocsackie B4 virus, Punto Toro virus and Yellow Fever Virus; details: cited from earlier work
[5] = in vivo; cited from earlier work
[6] = tested on: replicating Mycobacterium tuberculosis; details: cited from earlier work
in vitro = details: African green monkey

SMILES: CCN(CCO)CCCC(C)Nc1ccnc2cc(Cl)ccc12 (stereo not shown) [Hydroxychloroquine]
- fold less potent in CALU-3 than in VERO cells (SARS-CoV-2 [1]): 10 fold
- inhibition at 33 µM (SARS-CoV-2 [2]; 33 microM, 4-day assay, read-out: inhibition at the highest non-toxic concentration): 43%
- EC50 (SARS-CoV-2 [3]; Severe acute respiratory syndrome coronavirus 2, Vero C1008, Vero E6, moi 0.05, 48 hours, TCID50): 10.4 µM
- selectivity index (SARS-CoV-2 [3]; calculated relative to the CC50 for the 4-day test): 5.3

SMILES: COc1cc(NC(C)CCCN)c2ncccc2c1 (stereo not shown) [Primaquine]
- dose clearing Babesia parasitemia (Babesia): 100 mg/kg
- EC50 [4]: > 50 µM
- half-life [5]: approximately 6 hours
- MIC [6]: 256 microgram/ml

SMILES: CCC(CC)COC(=O)[C@H](C)N[P@](=O)(OC[C@H]1O[C@@](C#N)(c2ccc3c(N)ncnn23)[C@H](O)[C@@H]1O)Oc1ccccc1 [Remdesivir]
- EC50 (SARS-CoV-2 [2]): 0.7 µM
- CC50 (in vitro): > 100 µM
